In US20170266151A1, “Novel salts of 3-[(DIMETHYLAMINO)METHYL]-N--1-BENZOFURAN-2-CARBOXAMIDE, related crystalline forms, method for preparing the same and pharmaceutical compositions containing the same” (Pharmacyclics LLC, priority 2014, published 2017):
Values belong to the molecule of their own block, whether it stands above or below them.

Columns and labels:
[1] = Hygroscopicity by dynamic vapor sorption (DVS); type: physicochemical
Description: The hygroscopicity of the crystalline forms of the salts of 3-[(dimethylamino)methyl]-N-{2-[4-(hydroxycarbamoyl)phenoxy]ethyl}-1-benzofuran-2-carboxamide according to the invention was evaluated by dynamic vapor sorption (DVS) using a DVS Intrinsic apparatus. A sample of 5 to 10 mg of the substance, weighed accurately, was disposed in a DVS sample pan operating at 25° C. under controlled humidity. The mass variation was recorded on the basis of a balancing bearing at 50% relative humidity, followed by three subsequent linear phases of increasing (from 50 to 90%), of decreasing (from 90 to 0%) and of increasing (from 0 to 50%) the relative humidity at a speed of 10% per hour. The relative humidity was maintained constant when it reached either 0, or 50, or 90% relative humidity, until the mass variation was less than 0.002% per minute, with a time limit of 15 hours.
The hygroscopicity of the hemipentahydrate crystalline form of the hydrogen sulfate of 3-[(dimethylamino)methyl]-N-{2-[4-(hydroxycarbamoyl)phenoxy]ethyl}-1-benzofuran-2-carboxamide according to the invention was evaluated by dynamic vapor sorption (DVS) using a DVS Intrinsic apparatus. A sample of 5 to 10 mg of the substance, weighed accurately, was disposed in a DVS sample pan operating at 25° C. under controlled humidity. The mass variation was recorded on the basis of a balancing bearing at 50% relative humidity, followed by three subsequent linear phases of increasing (from 50 to 90%), of decreasing (from 90 to 0%) and of increasing (from 0 to 50%) the relative humidity at a speed of 10% per hour. The relative humidity was maintained constant when it reached either 0, or 50, or 90 % relative humidity, until the mass variation is less than 0.002% per minute, with a time limit of 15 hours.

tumor cells = tumor cells cultured in vitro; Buggy et al. 2006; cited from earlier work
xenograft models = details: Buggy et al. 2006; cited from earlier work
[2] = salt of WO 2004/092115; use on industrial scale difficult; cited from earlier work

mass variation detected by DVS analysis ([1]; exposure to between 0 and 90% relative humidity at 25° C.): less than 0.2%
Molecule: CN(C)Cc1c(C(=O)NCCOc2ccc(C(=O)NO)cc2)oc2ccccc12.O=C(O)C(=O)O [Example 3, Oxalate of 3-[(dimethylamino)methyl]-N-{2-[4-(hydroxycarbamoyl)phenoxy]ethyl}-1-benzofuran-2-carboxamide]

Molecule: CN(C)Cc1c(C(=O)NCCOc2ccc(C(=O)NO)cc2)oc2ccccc12 [abexinostat, 3-[(Dimethylamino)methyl]-N-{2-[4-(hydroxycarbamoyl)phenoxy]ethyl}-1-benzofuran-2-carboxamide]
effect on apoptosis (tumor cells): induce apoptosis
effect on cell growth (tumor cells): inhibit cell growth
effect on tumor growth (xenograft models): inhibit tumor growth

Molecule: CN(C)Cc1c(C(=O)NCCOc2ccc(C(=O)NO)cc2)oc2ccccc12.Cl [hydrochloride, hydrochloride of 3-[(dimethylamino)methyl]-N-{2-[4-(hydroxycarbamoyl)phenoxy]ethyl}-1-benzofuran-2-carboxamide]
hygroscopic properties [2]: hygroscopic

relative humidity beyond which converted into hemiheptahydrate hydrogen sulfate ([1]; DVS, 25° C., increasing humidity): > 70 % relative humidity
Molecule: Hydrogen Sulfate of 3-[(dimethylamino)methyl]-N-{2-[4-(hydroxycarbamoyl)phenoxy]ethyl}-1-benzofuran-2-carboxamide [Example 5]

Molecule: Hydrogen Sulfate of 3-[(dimethylamino)methyl]-N-{2-[4-(hydroxycarbamoyl)phenoxy]ethyl}-1-benzofuran-2-carboxamide [Example 6]
relative humidity below which dehydrated completely ([1]; DVS, 25° C., decreasing humidity to 0%): Below 20 % relative humidity
